Measurements as given in patent US20230078764A1 (Yumanity Therapeutics, Inc., priority 2019, published 2023).

Key:
human SCD5 = biological target: T1, human SCD5 (Homo sapiens, UniProt Q86SK9); test: Growth inhibition of yeast strain expressing human SCD5 as sole desaturase (OLE1 deleted), OD600 readout; format: cell-based; conditions: yeast strain expressing human SCD5 as sole desaturase; growth (OD600) after 40 h at 30° C.; read-out: SCD5 IC50
T1 construct: expressed in transfected cells; host or cells: yeast strain with OLE1 deleted, plasmid-borne human SCD5 (selected in SD-Ura)
T1 sequence (Q86SK9 1-330): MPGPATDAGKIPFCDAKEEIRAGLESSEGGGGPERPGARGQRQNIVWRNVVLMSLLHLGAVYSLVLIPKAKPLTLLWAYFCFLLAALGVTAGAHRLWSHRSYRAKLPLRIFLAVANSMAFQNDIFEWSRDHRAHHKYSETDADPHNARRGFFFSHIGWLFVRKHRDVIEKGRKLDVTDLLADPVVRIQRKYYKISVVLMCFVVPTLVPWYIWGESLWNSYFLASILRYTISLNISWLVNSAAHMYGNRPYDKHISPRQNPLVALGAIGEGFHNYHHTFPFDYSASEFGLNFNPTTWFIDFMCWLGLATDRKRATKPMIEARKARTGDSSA

human SCD1 = biological target: T2, human SCD1 (Homo sapiens, UniProt O00767); test: Growth inhibition of yeast strain expressing human SCD1 as sole desaturase (OLE1 deleted), OD600 readout; format: cell-based; conditions: yeast strain expressing human SCD1 as sole desaturase; growth (OD600) after 40 h at 30° C.; read-out: SCD1 IC50
T2 construct: expressed in transfected cells; host or cells: yeast strain with OLE1 deleted, plasmid-borne human SCD1 (selected in SD-Ura)
T2 sequence (O00767 1-359): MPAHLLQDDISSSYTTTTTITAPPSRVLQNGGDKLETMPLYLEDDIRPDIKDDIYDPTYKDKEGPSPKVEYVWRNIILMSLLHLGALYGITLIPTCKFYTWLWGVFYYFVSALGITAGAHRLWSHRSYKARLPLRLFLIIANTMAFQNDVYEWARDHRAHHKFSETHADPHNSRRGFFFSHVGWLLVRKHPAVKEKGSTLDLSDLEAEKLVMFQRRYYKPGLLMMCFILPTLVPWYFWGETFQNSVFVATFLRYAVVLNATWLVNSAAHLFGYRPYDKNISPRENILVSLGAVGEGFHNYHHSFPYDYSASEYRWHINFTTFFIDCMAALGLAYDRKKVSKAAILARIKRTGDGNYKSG

Row | SMILES | IC50 (human SCD5) | IC50 (human SCD1)
1 | CN1N=C(C(=O)Nc2ccc(Cc3cccs3)nn2)CCC1=O [Compound 271] | 14800 nM | > 45000 nM
2 | O=C(Nc1ccc(Cc2cccc(F)c2)cn1)c1ccc(=O)n(C2COC2)c1 [Compound 272] | 13000 nM | > 45000 nM
3 | O=C(Nc1ccc(Cc2cccc(Cl)c2)cn1)c1ccc(=O)n(C2COC2)c1 [Compound 273] | 3250 nM | > 45000 nM
4 | Cn1nc(C(=O)Nc2ccc(Cc3cncc(Cl)c3)cn2)ccc1=O [Compound 275] | 3020 nM | > 45000 nM
5 | Cn1cc(C(=O)Nc2ccc(Cc3cncc(Cl)c3)cn2)ccc1=O [Compound 276] | 950 nM | > 45000 nM
6 | CN1N=C(C(=O)Nc2ccc(Cc3cncc(C(F)(F)F)c3)cn2)CCC1=O [Compound 277] | 13400 nM | > 45000 nM
7 | Cn1cc(C(=O)Nc2ccc(Cc3cc(C(F)(F)F)ccn3)cn2)ccc1=O [Compound 279] | 1960 nM | 21500 nM
8 | Cn1nc(C(=O)Nc2ccc(Cc3cccc(F)c3)cn2)cc(Br)c1=O [Compound 280] | 20 nM | 130 nM
9 | CN1N=C(C(=O)Nc2ccc(NCc3cccc(F)c3)cn2)CCC1=O [Compound 281] | 2750 nM | > 45000 nM
10 | COc1cc(Cl)cc(Cc2ccc(NC(=O)c3ccc(=O)n(C)n3)nc2)c1 [Compound 282] | 20 nM | 210 nM
11 | Cn1c(C(=O)Nc2ccc(Cc3cccc(F)c3)cn2)coc1=O [Compound 283] | 270 nM | 2960 nM
12 | O=C(Nc1ccc(Cc2cccc(F)c2)cn1)c1ccn(C2CC2)n1 [Compound 285] | 1430 nM | 9410 nM
13 | CN1N=C(C(=O)Nc2ccc(/C=C/c3cccc(Cl)c3)nn2)CCC1=O [Compound 288] | 2520 nM | > 45000 nM
14 | CNCc1ccc(C(=O)Nc2ccc(Cc3cccc(Cl)c3)cn2)cn1 [Compound 289] | 9200 nM | > 45000 nM
15 | O=C(Nc1ccc(Cc2cccc(Cl)c2)cn1)c1cnc(CO)c(F)c1 [Compound 290] | 10 nM | 10 nM
16 | O=C(Nc1ccc(COc2cccc(Cl)c2)cn1)c1ccc(=O)n(C2CC2)c1 [Compound 291] | 4910 nM | 22500 nM
17 | O=C(Nc1ccc(COc2cccc(Cl)c2)cn1)c1ccc(CO)nc1 [Compound 292] | 10 nM | 2070 nM
18 | O=C(Nc1ccc(COc2ccc(F)c(Cl)c2)cn1)c1ccc(CO)nc1 [Compound 293] | 40 nM | 80 nM
19 | CN1N=C(NC(=O)c2ccc(Cc3cccc(C(F)F)c3)cn2)CCC1=O [Compound 294] | 300 nM | > 45000 nM
20 | O=C(Nc1ccc(Cc2cccc(Cl)c2)cn1)c1ccc(C(F)F)nc1 [Compound 295] | 340 nM | 22500 nM
21 | Cn1nc(C(=O)Nc2ccc(CCc3cccc(Cl)c3)cn2)ccc1=O [Compound 297] | 1200 nM | > 45000 nM

Row | SMILES | IC50 (human SCD5) | IC50 (human SCD1)
22 | Cn1nc(C(=O)Nc2ccc(Nc3cccc(F)c3)cn2)ccc1=O [Compound 300] | 5600 nM | > 45000 nM
23 | CN(c1ccc(NC(=O)c2ccc(=O)n(C)c2)nc1)c1cccc(F)c1 [Compound 302] | 3340 nM | > 45000 nM
24 | O=C(Nc1ccc(Nc2cccc(Cl)c2)cn1)c1ccc(=O)n(C2CC2)n1 [Compound 303] | 970 nM | 4180 nM
25 | O=C(Nc1ccc(Nc2cccc(F)c2)cn1)c1ccc(=O)n(C2CC2)n1 [Compound 304] | 2700 nM | > 45000 nM
26 | Cn1cc(NC(=O)N2CCC(Oc3cccc(Cl)c3)CC2)ccc1=O [Compound 305] | 6940 nM | 27000 nM
27 | Cn1nc(OC(=O)N2CCC(Oc3cccc(Cl)c3)CC2)ccc1=O [Compound 307] | 570 nM | 1170 nM
28 | Cn1cc(NC(=O)N2CCC(Cc3cccc(Cl)c3)CC2)ccc1=O [Compound 308] | 3120 nM | 22800 nM
29 | Cn1nc(NC(=O)N2CCC(Cc3cccc(Cl)c3)CC2)ccc1=O [Compound 309] | 50 nM | 540 nM
30 | Cn1nc(NC(=O)c2ccc(Cc3cc(F)cc(F)c3)cn2)ccc1=O [Compound 310] | 10 nM | 140 nM
31 | Cn1cc(NC(=O)c2ccc(Cc3cc(F)cc(F)c3)cn2)ccc1=O [Compound 311] | 10 nM | 1020 nM
32 | Cn1cc(C(=O)Nc2ccc(Cc3ccc(F)c(F)c3)cn2)cn1 [Compound 314] | 20 nM | 100 nM
33 | O=C(Nc1ccc(Cc2cccc(Cl)c2)cn1)c1cnc(Cl)c(F)c1 [Compound 319] | 460 nM | > 45000 nM
34 | O=C(Nc1ccc(CC2CCCCC2)cn1)c1ccc(CO)cn1 [Compound 321] | 10 nM | 10 nM
35 | Cn1nc(C(=O)Nc2ccc(Cc3ccc(F)c(Cl)c3)cn2)cc1O [Compound 323] | 810 nM | 10700 nM
36 | Cn1nc(C(=O)Nc2ccc(Cc3ccc(F)c(F)c3)cn2)cc1O [Compound 324] | 1130 nM | > 45000 nM
37 | Cn1nc(C(=O)Nc2ccc(Cc3cc(F)cc(F)c3)cn2)cc1O [Compound 325] | 660 nM | 16400 nM
38 | CCn1cc(C(=O)Nc2ccc(CC3CCCCC3)cn2)ccc1=O [Compound 326] | 4710 nM | > 45000 nM
39 | N#Cc1ccc(C(=O)Nc2ccc(CC3CCCCC3)cn2)cn1 [Compound 327] | 1320 nM | > 45000 nM
40 | Cn1cccc(C(=O)Nc2ccc(Cc3ccc(F)c(F)c3)cn2)c1=O [Compound 328] | 10 nM | 1760 nM
41 | Cn1cccc(C(=O)Nc2ccc(Cc3ccc(F)c(Cl)c3)cn2)c1=O [Compound 331] | 10 nM | 130 nM

Continued, values first:

Row | IC50 (human SCD5) | IC50 (human SCD1) | SMILES
42 | 3040 nM | > 45000 nM | CN1N=C(C(=O)Oc2ccc(NCc3cccc(Br)c3)nc2)CCC1=O [Compound 268]
43 | 30 nM | > 45000 nM | CN1N=C(C(=O)Oc2ccc(NCc3cc(F)cc(C#N)c3)nc2)CCC1=O [Compound 269]
44 | 6880 nM | > 45000 nM | CN1N=C(C(=O)Nc2ccc(OCc3cc(F)cc(C#N)c3)cn2)CCC1=O [Compound 270]
45 | 760 nM | > 45000 nM | CN1N=C(C(=O)Nc2ccc(Cc3cncc(Cl)c3)cn2)CCC1=O [Compound 274]
46 | 2030 nM | 39900 nM | Cn1nc(C(=O)Nc2ccc(Cc3cc(C(F)(F)F)ccn3)cn2)ccc1=O [Compound 278]
47 | 4520 nM | > 45000 nM | CN(C)C(=O)c1ccc(NC(=O)c2ccc(Cc3cccc(Cl)c3)cn2)cc1 [Compound 284]
48 | 240 nM | 4000 nM | Cn1nc(C(=O)Nc2ccc(NCc3cccc(Cl)c3)cn2)ccc1=O [Compound 286]
49 | 140 nM | 860 nM | O=C(Nc1ccc(Cc2cccc(F)c2)cn1)c1ccc(=O)n(C(F)F)c1 [Compound 287]
50 | 860 nM | > 45000 nM | CN1N=C(C(=O)Nc2ccc(CCc3cccc(Cl)c3)cn2)CCC1=O [Compound 296]
51 | 340 nM | 2750 nM | Cn1cc(C(=O)Nc2ccc(C3CC3c3ccccc3)cn2)ccc1=O (stereo not drawn) [Compound 298]
52 | 3790 nM | > 45000 nM | O=C(Nc1ccc(Cc2cccc(Cl)c2)cn1)c1ccc(Br)nc1 [Compound 299]
53 | 5220 nM | > 45000 nM | CN(c1ccc(NC(=O)c2ccc(=O)n(C)n2)nc1)c1cccc(F)c1 [Compound 301]
54 | 30 nM | 1820 nM | Cn1nc(NC(=O)c2ccc(Cc3ccc(F)c(F)c3)cn2)ccc1=O [Compound 312]
55 | 20 nM | 1860 nM | Cn1cc(NC(=O)c2ccc(Cc3ccc(F)c(F)c3)cn2)ccc1=O [Compound 313]
56 | 10 nM | 10 nM | Cn1cc(C(=O)Nc2ccc(Cc3cc(F)cc(F)c3)cn2)cn1 [Compound 315]
57 | 10 nM | 10 nM | Cn1cc(C(=O)Nc2ccc(Cc3cc(F)cc(Cl)c3)cn2)cn1 [Compound 316]
58 | 100 nM | 980 nM | Cn1nc(C(=O)Nc2nc(Br)c(Cc3cccc(F)c3)s2)ccc1=O [Compound 317]
59 | 50 nM | 130 nM | CCO/C=C/c1ccc(C(=O)Nc2ccc(Cc3cccc(Cl)c3)cn2)cn1 [Compound 318]
60 | 1580 nM | > 45000 nM | C=C(OCC)c1ccc(C(=O)Nc2ccc(Cc3cccc(Cl)c3)cn2)cn1 [Compound 320]
61 | 6070 nM | 12700 nM | Cn1nc(NC(=O)N[C@H]2CC[C@@H](Cc3cccc(Cl)c3)CC2)ccc1=O [Compound 322]
62 | 10 nM | 100 nM | Cn1cccc(C(=O)Nc2ccc(Cc3cc(F)cc(F)c3)cn2)c1=O [Compound 329]
63 | 10 nM | 570 nM | Cn1cccc(C(=O)Nc2ccc(Cc3cccc(Cl)c3)cn2)c1=O [Compound 330]
